Assay results from ChEMBL document CHEMBL4152365, “Discovery of DS-6930, a potent selective PPARγ modulator. Part I: Lead identification” (Bioorg Med Chem, 2018).
≈ marks a conversion by molar mass, not a printed value. Calls of active or inactive are those of the source. No cut-off for these calls is given here.

Tests used:
Rattus norvegicus [1] = assay: Glucose-lowering effect in Zucker diabetic fatty rat assessed as reduction in plasma glucose level at 3 mg/kg, po administered once daily for 14 days measured on day 14 post last dose relative to control; type: functional; design: scale not given: the % may be the effect or the level left
Rattus norvegicus [2] = assay: Toxicity in Wistar-Imamichi rat assessed as reduction in RBC count at 100 mg/kg, po administered via gavage once daily for 28 days relative to control; type: organism-based; design: scale not given: the % may be the effect or the level left; details: in vivo, 672 h
Rattus norvegicus [3] = assay: Toxicity in Wistar-Imamichi rat assessed as elevation in ALT activity at 30 to 300 mg/kg, po administered via gavage once daily for 28 days; type: organism-based; details: in vivo, 672 h
Rattus norvegicus [4] = assay: Toxicity in Zucker diabetic fatty rat assessed as body weight gain at 3 mg/kg, po administered once daily for 14 days relative to control; type: organism-based; details: in vivo, 336 h
Rattus norvegicus [5] = assay: Toxicity in Wistar-Imamichi rat assessed as reduction in RBC count at 30 mg/kg, po administered via gavage once daily for 28 days relative to control; type: organism-based; design: scale not given: the % may be the effect or the level left; details: in vivo, 672 h
Rattus norvegicus [6] = assay: Toxicity in Wistar-Imamichi rat assessed as death at 30 to 300 mg/kg, po administered via gavage once daily for 28 days; type: organism-based; details: in vivo, 672 h
Rattus norvegicus [7] = assay: Toxicity in Wistar-Imamichi rat assessed as effect on hemodilution by measuring increase in heart weight at 30 to 300 mg/kg, po administered via gavage once daily for 28 days; type: organism-based; details: in vivo, 672 h
Rattus norvegicus [8] = assay: Toxicity in Wistar-Imamichi rat assessed as effect on hemodilution by measuring increase in heart weight at 100 mg/kg, po administered via gavage once daily for 28 days; type: organism-based; details: in vivo, 672 h
Rattus norvegicus [9] = assay: Toxicity in Wistar-Imamichi rat assessed as reduction in RBC count at 300 mg/kg, po administered via gavage once daily for 28 days relative to control; type: organism-based; design: scale not given: the % may be the effect or the level left; details: in vivo, 672 h
Rattus norvegicus [10] = assay: Toxicity in Wistar-Imamichi rat assessed as reduction in RBC count at 30 to 300 mg/kg, po administered via gavage once daily for 28 days; type: organism-based; details: in vivo, 672 h
Rattus norvegicus [11] = assay: Toxicity in Wistar-Imamichi rat assessed as elevation in AST activity at 30 to 300 mg/kg, po administered via gavage once daily for 28 days; type: organism-based; details: in vivo, 672 h
Rattus norvegicus [12] = assay: Toxicity in Wistar-Imamichi rat assessed as clinical abnormality at 30 to 300 mg/kg, po administered via gavage once daily for 28 days; type: organism-based; details: in vivo, 672 h
[13] = Plasma concentration in hyperglycemic KK/Ta mouse at 30 mg/kg/day, po administered through diet for 3 days measured on day 3 post last dose; type: ADME, organism-based
[14] = AUC (0 to 24 hrs) in Zucker diabetic fatty rat at 3 mg/kg, po dosed once daily for 14 days and followed by additional administeration on day 15; type: ADME, organism-based; design: dose 3 mg/kg, time < 24 hr, route oral; details: in vivo
[15] = biological target: T1, Peroxisome proliferator-activated receptor gamma (Homo sapiens, UniProt P37231); assay: Agonist activity at recombinant human GAL4-DBD fused PPARgamma LBD expressed in COS7 cells after 24 hrs by luciferase reporter gene assay; type: cell-based
T1 sequence (P37231 whole entry): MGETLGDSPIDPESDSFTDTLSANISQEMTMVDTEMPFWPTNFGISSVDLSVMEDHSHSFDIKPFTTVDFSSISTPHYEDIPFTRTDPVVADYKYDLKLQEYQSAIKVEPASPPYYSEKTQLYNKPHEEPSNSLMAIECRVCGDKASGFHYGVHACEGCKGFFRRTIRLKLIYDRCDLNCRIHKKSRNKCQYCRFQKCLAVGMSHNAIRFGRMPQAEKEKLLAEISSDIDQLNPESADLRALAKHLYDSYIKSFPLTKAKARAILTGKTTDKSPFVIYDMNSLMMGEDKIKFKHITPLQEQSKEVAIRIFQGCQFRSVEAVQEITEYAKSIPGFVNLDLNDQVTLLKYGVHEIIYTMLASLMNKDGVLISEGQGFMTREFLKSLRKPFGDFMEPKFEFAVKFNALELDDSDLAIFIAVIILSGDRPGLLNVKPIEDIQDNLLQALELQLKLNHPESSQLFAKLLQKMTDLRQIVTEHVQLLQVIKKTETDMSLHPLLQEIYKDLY

[16] = Volume of distribution at steady state in cynomolgus monkey at 1 mg/kg, iv by LC-MS/MS analysis; type: ADME, organism-based, Macaca fascicularis; details: in vivo, read-out: Vdss
[17] = Tmax in Zucker diabetic fatty rat at 3 mg/kg, po dosed once daily for 14 days and followed by additional administeration on day 15; type: ADME, organism-based; details: in vivo
[18] = biological target: T2, Peroxisome proliferator-activated receptor alpha (Homo sapiens) (UniProt Q07869); assay: Agonist activity at recombinant human GAL4-DBD fused PPARalpha LBD expressed in COS7 cells at 10 uM after 24 hrs by luciferase reporter gene assay relative to 2-(4-tert-Butylphenoxy)-3-[4-[2-[(4-pyridin-2-ylbenzoyl)amino]ethoxy]; type: cell-based
T2 sequence (whole entry): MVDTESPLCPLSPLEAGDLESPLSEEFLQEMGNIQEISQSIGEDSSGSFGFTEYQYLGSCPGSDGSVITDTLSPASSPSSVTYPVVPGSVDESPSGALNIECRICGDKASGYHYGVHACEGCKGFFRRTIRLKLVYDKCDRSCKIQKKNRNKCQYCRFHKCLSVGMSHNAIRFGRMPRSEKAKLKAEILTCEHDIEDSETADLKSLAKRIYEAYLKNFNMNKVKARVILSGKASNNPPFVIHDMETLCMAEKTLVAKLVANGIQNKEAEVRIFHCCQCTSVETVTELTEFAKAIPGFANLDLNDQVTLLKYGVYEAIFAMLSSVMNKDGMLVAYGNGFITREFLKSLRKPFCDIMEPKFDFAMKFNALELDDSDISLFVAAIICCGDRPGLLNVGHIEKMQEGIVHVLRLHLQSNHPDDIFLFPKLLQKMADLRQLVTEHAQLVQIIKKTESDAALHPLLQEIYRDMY

Mus musculus [19] = assay: Glucose-lowering effect in hyperglycemic KK/Ta mouse assessed as reduction in plasma glucose level at 30 mg/kg/day, po administered through diet for 3 days relative to control; type: functional; design: scale not given: the % may be the effect or the level left
[20] = Metabolic stability in rat liver microsomes after 0.5 hrs; type: ADME, microsome; details: read-out: Stability
[21] = Cmax in cynomolgus monkey at 3 mg/kg, po by LC-MS/MS analysis; type: ADME, organism-based, Macaca fascicularis; design: dose 3 mg/kg, route oral; details: in vivo
[22] = biological target: T3, Peroxisome proliferator-activated receptor gamma (Homo sapiens) (UniProt P37231); assay: Agonist activity at recombinant human GAL4-DBD fused PPARgamma LBD expressed in COS7 cells at 10 uM after 24 hrs by luciferase reporter gene assay relative to rosiglitazone; type: cell-based
T3 sequence (whole entry): T1 sequence (P37231 whole entry)

[23] = 1-octanol/PBS distribution co-efficient, log D of the compound at […] at pH 7.4 after 30 mins by HPLC-MS/MS analysis; type: physicochemical
[24] = biological target: T4, Peroxisome proliferator-activated receptor delta (Homo sapiens) (UniProt Q03181); assay: Agonist activity at PPARdelta (unknown origin) at 10 uM
T4 sequence (whole entry): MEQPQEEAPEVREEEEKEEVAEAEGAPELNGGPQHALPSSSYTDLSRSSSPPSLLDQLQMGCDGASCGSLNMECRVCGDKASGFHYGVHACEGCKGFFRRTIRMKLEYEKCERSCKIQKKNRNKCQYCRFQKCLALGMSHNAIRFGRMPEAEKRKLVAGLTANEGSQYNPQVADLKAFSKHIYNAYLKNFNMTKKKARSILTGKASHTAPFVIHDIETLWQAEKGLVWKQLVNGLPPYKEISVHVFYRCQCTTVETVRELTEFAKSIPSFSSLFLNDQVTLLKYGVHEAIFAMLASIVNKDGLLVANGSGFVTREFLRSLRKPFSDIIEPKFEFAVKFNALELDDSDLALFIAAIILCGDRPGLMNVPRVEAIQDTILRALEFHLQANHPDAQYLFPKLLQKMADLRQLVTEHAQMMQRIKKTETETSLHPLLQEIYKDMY

[25] = biological target: T5, Peroxisome proliferator-activated receptor alpha (Homo sapiens, UniProt Q07869); assay: Agonist activity at recombinant human GAL4-DBD fused PPARalpha LBD expressed in COS7 cells after 24 hrs by luciferase reporter gene assay; type: cell-based
T5 sequence (Q07869 whole entry): T2 sequence (whole entry)

[26] = Clearance in cynomolgus monkey at 1 mg/kg, iv by LC-MS/MS analysis; type: ADME, organism-based, Macaca fascicularis; details: in vivo
[27] = Cmax in Zucker diabetic fatty rat at 3 mg/kg, po dosed once daily for 14 days and followed by additional administeration on day 15; type: ADME, organism-based; design: dose 3 mg/kg, route oral; details: in vivo
[28] = Oral bioavailability in cynomolgus monkey at 3 mg/kg by LC-MS/MS analysis; type: ADME, organism-based, Macaca fascicularis; details: in vivo
Mus musculus [29] = assay: Toxicity in hyperglycemic KK/Ta mouse assessed as body weight gain at 30 mg/kg/day, po administered through diet for 3 days relative to control; type: organism-based; details: in vivo, 72 h
[30] = Metabolic stability in cynomolgus monkey liver microsomes after 0.5 hrs; type: ADME, Macaca fascicularis, microsome; details: read-out: Stability
[31] = AUClast in cynomolgus monkey at 3 mg/kg, po by LC-MS/MS analysis; type: ADME, organism-based, Macaca fascicularis; design: dose 3 mg/kg, route oral, time 0 - last; details: in vivo
[32] = Aqueous thermodynamic solubility of the compound in pH 6.8 solution up to 4 hrs by HPLC-UV analysis; type: physicochemical; details: read-out: Therm_solubility
[33] = Half life in cynomolgus monkey at 3 mg/kg, po by LC-MS/MS analysis; type: ADME, organism-based, Macaca fascicularis; details: in vivo
[34] = Metabolic stability in human liver microsomes after 0.5 hrs; type: ADME, microsome; details: read-out: Stability
[35] = Tmax in cynomolgus monkey at 3 mg/kg, po by LC-MS/MS analysis; type: ADME, organism-based, Macaca fascicularis; details: in vivo

| concentration at 72 h [13] | AUC at 24 h [14] | EC50 [15] | Vd [16] | Tmax [17] | Emax [18] | remaining at 0.5 h [20] | Cmax [21] | Emax [22] | logD at 0.5 h [23] | EC50 [25] | clearance [26] | Cmax [27] | bioavailability [28] | remaining at 0.5 h [30] | AUC(0-t) [31] | Compound | Activity (Rattus norvegicus [1]) | Activity (Rattus norvegicus [4]) | Activity (Mus musculus [19]) | Activity (Mus musculus [29]) | further results |
| --- | --- | --- | --- | --- | --- | --- | --- | --- | --- | --- | --- | --- | --- | --- | --- | --- | --- | --- | --- | --- | --- |
| – | – | – | – | – | – | – | – | – | – | – | – | – | – | – | – | CN(CCOc1ccc(CC2SC(=O)NC2=O)cc1)c1ccccn1 (stereo not given) [ROSIGLITAZONE] | 40.3% | 12.6% | – | – | Activity (Rattus norvegicus [2]): 8.9%; Activity (Rattus norvegicus [3]): Non-Toxic; Activity (Rattus norvegicus [5]): 5.9%; Activity (Rattus norvegicus [6]): Non-Toxic; Activity (Rattus norvegicus [7]): Toxic; Activity (Rattus norvegicus [8]): 24.7%; Activity (Rattus norvegicus [9]): 14.2%; Activity (Rattus norvegicus [10]): Dose-dependent effect; Activity (Rattus norvegicus [11]): Non-Toxic; Activity (Rattus norvegicus [12]): Non-Toxic |
| 510 ng/mL | 7100 ng·h/mL | 40 nM | 0.56 L/kg | 2 h | 28% | 100% | 1020 ng/mL | 73% | 2.4 | > 10000 nM | 3.58 mL/min/kg | 1110 ng/mL | 34% | 100% | 4870 ng·h/mL | Cc1ccc(Oc2ccc3nc(COc4cccc(C(=O)O)c4)n(C)c3c2)cc1 | 58.6% | 13% | 48.4% | 4.8% | Activity [24]: inactive; solubility thermodynamic at 4 h [32]: 7.9 µg/mL (≈ 20.3 µM); half-life [33]: 10.4 h; remaining at 0.5 h [34]: 91%; Tmax [35]: 1 h |
| 700 ng/mL | 3870 ng·h/mL | 134 nM | 0.39 L/kg | 2 h | 36% | 95% | 5630 ng/mL | 79% | 1.9 | > 10000 nM | 0.8 mL/min/kg | 520 ng/mL | 65% | 100% | 40900 ng·h/mL | Cn1c(COc2cccc(C(=O)O)c2)nc2ccc(Oc3cc(F)ccc3F)cc21 | 61.2% | 9.5% | 51.2% | 3.3% | solubility thermodynamic at 4 h [32]: 5.7 µg/mL (≈ 13.9 µM); half-life [33]: 16.1 h; remaining at 0.5 h [34]: 98%; Tmax [35]: 1 h |
| 550 ng/mL | 3160 ng·h/mL | 92 nM | 1.23 L/kg | 2.4 h | 16% | 98% | 330 ng/mL | 90% | 2.3 | > 10000 nM | 4.16 mL/min/kg | 300 ng/mL | 24% | 100% | 2870 ng·h/mL | Cc1ccc(Oc2ccc3nc(COc4cccc(C(=O)O)c4)n(C)c3c2)c(F)c1 | 61.7% | 8.5% | 53.4% | 2.5% | solubility thermodynamic at 4 h [32]: 0.5 µg/mL (≈ 1.23 µM); half-life [33]: 16.1 h; remaining at 0.5 h [34]: 92%; Tmax [35]: 1.5 h |
